From the supplement of paper PMC11061612

Columns and labels:
Assay in all cases: Bliss excess, mean over the matrix (fraction); higher = more synergy
AU565 (Breast Carcinoma) = tested on: AU565 (Breast Carcinoma)
Procedure, shortened: (§1)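 Cell lines grown in DMEM/F12 or RPMI with 10% FBS were plated in 1536-well plates and held 24 hours at 37°C, 5% CO2 before 72 hours of exposure to two-drug dose matrices, with DMSO typically at 0.2%. CellTiter-Glo 2.0 luminescence gave viability, which was converted to inhibition. Vehicle wells were set to 0 and blank wells to 1. Combination Emax is the second-highest inhibition in the matrix, and Bliss excess is the observed combination effect minus the expected EA + EB − EA·EB, where EA and EB are the single-agent effects.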

[1] = tested on: CA46 (Burkitt's Lymphoma)
Procedure, shortened: as §1

[2] = tested on: CAL-27 (Oral Cavity Carcinoma)
Procedure, shortened: as §1

[3] = tested on: CESS (Acute Myeloid Leukemia)
Procedure, shortened: as §1

COLO-792 (Melanoma) = tested on: COLO-792 (Melanoma)
Procedure, shortened: as §1

[4] = tested on: DU-4475 (Breast Carcinoma)
Procedure, shortened: as §1

[5] = tested on: EPLC-272H (Other Solid Carcinomas)
Procedure, shortened: as §1

[6] = tested on: ESO26 (Esophageal Adenocarcinoma)
Procedure, shortened: as §1

[7] = tested on: G-402 (Other Solid Carcinomas)
Procedure, shortened: as §1

[8] = tested on: GCT (Other Solid Carcinomas)
Procedure, shortened: as §1

[9] = tested on: HT55 (Colorectal Carcinoma)
Procedure, shortened: as §1

[10] = tested on: JIMT-1 (Breast Carcinoma)
Procedure, shortened: as §1

[11] = tested on: JVM-2 (B-Cell Non-Hodgkin's Lymphoma)
Procedure, shortened: as §1

[12] = tested on: Jurkat (T-Lymphoblastic Leukemia)
Procedure, shortened: as §1

[13] = tested on: KYSE-140 (Esophageal Squamous Cell Carcinoma)
Procedure, shortened: as §1

[14] = tested on: LS-411N (Colorectal Carcinoma)
Procedure, shortened: as §1

NB13 (Neuroblastoma) = tested on: NB13 (Neuroblastoma)
Procedure, shortened: as §1

[15] = tested on: NCI-H716 (Colorectal Carcinoma)
Procedure, shortened: as §1

[16] = tested on: OACp4C (Esophageal Adenocarcinoma)
Procedure, shortened: as §1

RH-41 (Rhabdomyosarcoma) = tested on: RH-41 (Rhabdomyosarcoma)
Procedure, shortened: as §1

SMILES | Bliss excess (AU565 (Breast Carcinoma)) | Bliss excess [1] | Bliss excess [2] | Bliss excess [3] | Bliss excess (COLO-792 (Melanoma)) | Bliss excess [4] | Bliss excess [5] | Bliss excess [6] | Bliss excess [7] | Bliss excess [8] | Bliss excess [9] | Bliss excess [10] | Bliss excess [11] | Bliss excess [12] | Bliss excess [13] | Bliss excess [14] | Bliss excess (NB13 (Neuroblastoma)) | Bliss excess [15] | Bliss excess [16] | Bliss excess (RH-41 (Rhabdomyosarcoma))
C[C@@H](c1ccc2nccn2c1)n1nnc2ncc(-c3cnn(C)c3)nc21 [Savolitinib] + Cc1c2c(nn1C)CSCc1cc(n(C)n1)CSc1cc(c3ccccc3c1)OCCCc1c(C(=O)O)n(C)c3c-2c(Cl)ccc13 [AZD5991] (first compound max 1 µM, 7x7, partner max 1 µM) | 0.0125 | -0.03 | -0.0839 | -0.048 | -0.0446 | 0.007 | -0.0128 | -0.0026 | -0.0611 | -0.054 | -0.0697 | -0.0551 | -0.021 | -0.103 | -0.0301 | -0.0232 | -0.0206 | -0.0572 | -0.0328 | 0.0471
Cc1cc2ncnn2cc1Nc1ncc2c(n1)n(C1CCOCC1)c(=O)n2C [AZD7648] + C=CCn1c(=O)c2cnc(Nc3ccc(N4CCN(C)CC4)cc3)nc2n1-c1cccc(C(C)(C)O)n1 [AZD1775] (first compound max 10 µM, partner max 1 µM) | -0.043 | -0.0416 | 0.0108 | 0.028 | 0.0087 | -0.051 | 0.0042 | -0.0641 | 0.0111 | -0.0309 | -0.0027 | 0.0463 | -0.0458 | 0.0183 | 0.0004 | -0.0318 | -0.0531 | 0.0448 | -0.0303 | 0.0157
Cc1cc2ncnn2cc1Nc1ncc2c(n1)n(C1CCOCC1)c(=O)n2C [AZD7648] + CCN(CCO)CCCOc1ccc2c(Nc3cc(CC(=O)Nc4cccc(F)c4)[nH]n3)ncnc2c1 [AZD2811] (first compound max 10 µM, 7x7, partner max 1 µM) | 0.0433 | 0.0249 | 0.0107 | 0.0195 | -0.0769 | 0.0035 | 0.0143 | -0.0299 | 0.0421 | 0.0625 | -0.0003 | -0.0141 | 0.0382 | -0.01 | 0.033 | 0.0255 | 0.056 | 0.0292 | 0.0003 | 0.0902
Cc1nc(Nc2ncc(C(=O)Nc3c(C)cccc3Cl)s2)cc(N2CCN(CCO)CC2)n1 [Dasatinib] + CC(=O)Nc1cccc(-n2c(=O)n(C3CC3)c(=O)c3c(Nc4ccc(I)cc4F)n(C)c(=O)c(C)c32)c1 [Trametinib] (first compound max 2 µM, 7x7, partner max 1 µM) | -0.0345 | -0.0608 | -0.053 | -0.0622 | -0.0726 | 0.011 | -0.0746 | -0.0892 | -0.0618 | -0.119 | -0.032 | 0.0276 | -0.0158 | -0.0746 | -0.132 | 0.0509 | -0.0347 | -0.0355 | 0.01 | -0.0946
CN(CCO)CC[C@H](CSc1ccccc1)Nc1ccc(S(=O)(=O)NC(=O)c2ccc(N3CCC([C@@H](O)c4ccccc4-c4ccc(Cl)cc4)CC3)cc2)cc1S(=O)(=O)C(F)(F)F [AZD4320] + C=CCn1c(=O)c2cnc(Nc3ccc(N4CCN(C)CC4)cc3)nc2n1-c1cccc(C(C)(C)O)n1 [AZD1775] (first compound max 1 µM, partner max 1 µM) | 0.0571 | 0.0175 | -0.0226 | 0.0873 | 0.0939 | 0.0013 | -0.0069 | -0.0318 | -0.0345 | -0.0363 | 0.0167 | 0.0363 | 0.0965 | 0.0568 | -0.0161 | 0.0549 | 0.0475 | 0.0021 | -0.0071 | 0.0873
COc1cc2c(cc1OCCCCCOc1cc3c(cc1OC)C(=O)N1C=C(C)C[C@H]1C=N3)N=C[C@@H]1CC(C)=CN1C2=O [SG3199] + O=C(c1cc(Cc2n[nH]c(=O)c3ccccc23)ccc1F)N1CCN(C(=O)C2CC2)CC1 [Olaparib] (first compound max 0.001 µM, 7x7, partner max 10 µM) | -0.0315 | -0.0357 | -0.0664 | -0.0156 | -0.0373 | 0.0741 | -0.0023 | 0.0119 | -0.0289 | -0.0325 | -0.0358 | -0.0188 | -0.0219 | 0.0874 | -0.0186 | -0.0255 | -0.0143 | -0.0322 | -0.0268 | 0.0396
Cc1cc2ncnn2cc1Nc1ncc2c(n1)n(C1CCOCC1)c(=O)n2C [AZD7648] + CN(C)CCCOc1ccc(-c2ccc3ncc4c(c3c2)n(C2CCOCC2)c(=O)n4C)cn1 [AZD0156] (first compound max 10 µM, 7x7, partner max 1 µM) | 0.0589 | -0.0193 | 0.0004 | -0.0013 | 0.036 | -0.0209 | -0.0251 | -0.031 | -0.0271 | 0.0042 | 0.0035 | 0.0217 | -0.0297 | 0.0382 | -0.0325 | -0.0081 | -0.0173 | 0.0563 | 0.0043 | 0.0197
